Experimental findings from patent US11840686B2, “Modulation of prekallikrein (PKK) expression” (Ionis Pharmaceuticals, Inc., priority 2013, dated 2023) are described below.

The data set has as its system human PKK mRNA. Kind of data set: Antisense inhibition of human PKK mRNA in HepaRG cells, 1,000 nM, MOE/deoxy/cEt oligonucleotides (Example 3). It is filed as cell-based. The procedure, abridged: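 HepaRG cells at 20,000 per well electroporated with 1,000 nM 16-mer MOE/cEt/deoxy gapmers (phosphorothioate, 5-methylcytosine). After about 24 h, PKK mRNA measured by qRT-PCR with primer probe set RTS3454, normalized to RIBOGREEN total RNA. Reported as percent inhibition versus untreated cells.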

[1] abbreviates: Table 19, HepaRG cells, electroporation with 1,000 nM antisense oligonucleotide, approximately 24 hours, PKK mRNA by RT-PCR (RTS3454), relative to untreated control cells.
[2] abbreviates: Table 21 experiment, HepaRG cells, electroporation with 1,000 nM antisense oligonucleotide, approx. 24 hours, PKK mRNA by RT-PCR (RTS3454), relative to untreated control cells.
The mark [3] stands for this setting: HepaRG cells, electroporation with 1,000 nM antisense oligonucleotide, approx. 24 hours, PKK mRNA by RT-PCR (RTS3454), relative to untreated control cells, Table 25 experiment.
[4] abbreviates: PKK mRNA, HepaRG cells, 1,000 nM antisense oligonucleotide, Table 31.
The mark [5] stands for this setting: Table 27, HepaRG cells, 1,000 nM antisense oligonucleotide, human PKK mRNA.
Where [6] appears, read: HepaRG cells, electroporation with 1,000 nM antisense oligonucleotide, approximately 24 hours, primer probe set RTS3454, relative to untreated control cells, experiment of Table 24.
The mark [7] stands for this setting: Table 28, HepaRG cells, 1,000 nM antisense oligonucleotide, human PKK mRNA.
[8] abbreviates: Table 30, human PKK mRNA, HepaRG cells, 1,000 nM antisense oligonucleotide.
The mark [9] stands for this setting: HepaRG cells, electroporation with 1,000 nM antisense oligonucleotide, approx. 24 hours, PKK mRNA by RT-PCR (RTS3454), relative to untreated control cells, Table 26 experiment.
[10] abbreviates: HepaRG cells, electroporation with 1,000 nM antisense oligonucleotide, approximately 24 hours, primer probe set RTS3454, relative to untreated control cells, experiment of Table 23.

Strand notation (5' to 3'): a small letter for the sugar, then the base; units joined by * are phosphorothioate-linked, units joined directly phosphodiester-linked; [ ] holds rarer units or linkages, { } end groups; capitals alone tell only the bases. e = 2'-O-(2-methoxyethyl) (MOE); k = constrained ethyl (cEt); [5mC] = 5-methylcytosine; d = 2'-deoxy (DNA)

On to “548138 (e[5mC]*e[5mC]*k[5mC]*d[5mC]*dA*dG*dG*d[5mC]*dT*d[5mC]*dA*dG*dA*kA*kT*eT; antisense) [compound 548138]”, for which, under setting [1], the “% inhibition” value is 52%. Turning to “547834 (eA*eA*kA*d[5mC]*dT*dG*d[5mC]*dA*d[5mC]*d[5mC]*dT*dG*dT*kT*k[5mC]*eG; antisense) [compound 547834]”, under setting [2], the “% inhibition” value is on record as 63%. For the substance “548163 (eA*e[5mC]*k[5mC]*dT*d[5mC]*dG*d[5mC]*dA*dT*dT*dG*dT*d[5mC]*kA*kG*e[5mC]; antisense) [compound 548163]”, the “% inhibition” value under setting [3] came to 46%. As for “547892 (e[5mC]*eA*kA*dT*dT*dG*dT*dT*d[5mC]*d[5mC]*dG*dG*dT*kA*k[5mC]*eT; antisense) [compound 547892]”, the “% inhibition” value reads like this: (Table 20, HepaRG cells, electroporation with 1,000 nM antisense oligonucleotide, approximately 24 hours, PKK mRNA by RT-PCR (RTS3454), relative to untreated control cells) 29%; (Table 22 experiment, HepaRG cells, electroporation with 1,000 nM antisense oligonucleotide, approx. 24 hours, PKK mRNA by RT-PCR (RTS3454), relative to untreated control cells) 28%. As to “548644 (antisense eA*eA*k[5mC]*dT*dG*dG*dG*d[5mC]*dA*dG*dT*d[5mC]*d[5mC]*kT*kT*e[5mC]) [compound 548644]”, the “% inhibition” value under setting [4] amounted to 14%. For “548365 (antisense eT*eG*kT*dA*d[5mC]*dT*d[5mC]*d[5mC]*dA*d[5mC]*d[5mC]*dT*d[5mC]*kA*k[5mC]*eG) [compound 548365]”, the “% inhibition” value under setting [5] is given as 55%. Take “548050 (eA*eG*kG*d[5mC]*dG*dA*dT*dA*dT*d[5mC]*dA*dT*dG*kA*kT*eT; antisense) [compound 548050]”: the “% inhibition” value under setting [6] is listed as 37%.

Regarding “548500 (antisense eA*eT*kT*dG*d[5mC]*dT*d[5mC]*dA*dG*dG*d[5mC]*d[5mC]*d[5mC]*k[5mC]*k[5mC]*eT) [compound 548500]”, under setting [7], the “% inhibition” value stood at 29%.

On to “548522 (antisense eA*eG*kG*dT*dA*dT*dT*dG*dA*d[5mC]*d[5mC]*dG*d[5mC]*k[5mC]*kA*eG) [compound 548522]”, for which the “% inhibition” value under setting [7] worked out at 55%. Turning to “548030 (e[5mC]*eT*kG*dG*dT*dG*dT*d[5mC]*d[5mC]*dT*dA*dT*dG*kA*kG*eT; antisense) [compound 548030]”, the “% inhibition” value under setting [6] was 52%.

Take “548412 (antisense eT*eA*kA*d[5mC]*dA*dG*dT*dA*dT*d[5mC]*dA*d[5mC]*dT*kG*kT*eA) [compound 548412]”: under setting [8], the “% inhibition” value is recorded as 17%. Still for that read-out and setting: to “548429 (antisense eT*eA*kT*dA*dA*d[5mC]*dT*dA*dT*dA*dA*d[5mC]*dA*kG*kT*eA) [compound 548429]” belongs 0%. Take “547763 (antisense eG*eG*kT*dG*dA*dG*dT*d[5mC]*dT*d[5mC]*dT*dT*dG*kT*k[5mC]*eA) [compound 547763]”: the “% inhibition” value under setting [2] is recorded as 66%. As to “548219 (eG*eA*kA*dA*dT*d[5mC]*d[5mC]*dT*dG*dT*dG*d[5mC]*dA*kT*kA*eG; antisense) [compound 548219]”, the “% inhibition” value under setting [3] is 8%. As to “547773 (antisense eT*e[5mC]*kT*dT*dG*dG*dA*dG*dG*dT*dG*dA*dG*kT*k[5mC]*eT) [compound 547773]”, under setting [2], the “% inhibition” value worked out at 47%. Turning to “548624 (antisense eT*e[5mC]*kT*dA*dG*dG*dG*d[5mC]*d[5mC]*dA*d[5mC]*dA*d[5mC]*k[5mC]*kT*e[5mC]) [compound 548624]”, under setting [4], the “% inhibition” value is 24%.

On to “547767 (antisense eT*eG*kG*dA*dG*dG*dT*dG*dA*dG*dT*d[5mC]*dT*k[5mC]*kT*eT) [compound 547767]”, for which, under setting [2], the “% inhibition” value is listed as 74%. Consider “548281 (antisense eG*eG*kT*dT*dG*dA*dG*dG*dG*dA*d[5mC]*dA*dG*kA*k[5mC]*eA) [compound 548281]”, for which, under setting [9], the “% inhibition” value stood at 0%.

“548502 (antisense eA*eA*kT*dT*d[5mC]*dT*dT*dG*dG*dA*d[5mC]*d[5mC]*dA*kA*kG*eG) [compound 548502]”: the “% inhibition” value under setting [7] worked out at 25%.

In the case of “548275 (antisense eG*eT*k[5mC]*d[5mC]*d[5mC]*dA*dA*dG*dA*d[5mC]*dA*dT*dT*k[5mC]*k[5mC]*eT) [compound 548275]”, the “% inhibition” value under setting [9] came out at 40%. In the case of “548095 (antisense eT*eG*kT*dT*dT*dG*d[5mC]*dA*dA*dA*d[5mC]*dT*dA*kA*kG*eG) [compound 548095]”, the “% inhibition” value under setting [1] is 35%. As to “548222 (eA*eA*kT*d[5mC]*dA*dT*dG*d[5mC]*d[5mC]*dT*dT*dG*dT*kG*kG*eG; antisense) [compound 548222]”, the “% inhibition” value under setting [3] amounted to 32%. “548293 (eG*eT*k[5mC]*dA*d[5mC]*d[5mC]*dA*dG*dA*dA*d[5mC]*d[5mC]*dA*k[5mC]*kA*eT; antisense) [compound 548293]”: the “% inhibition” value under setting [9] worked out at 44%. With “548627 (antisense e[5mC]*e[5mC]*k[5mC]*dA*d[5mC]*dA*dT*dG*dT*dA*d[5mC]*d[5mC]*dA*k[5mC]*k[5mC]*eG) [compound 548627]”, the “% inhibition” value under setting [4] is on record as 22%. In the case of “547963 (antisense eG*eT*kT*d[5mC]*dA*dG*dG*dT*dA*dA*dA*dG*dT*kT*k[5mC]*eT) [compound 547963]”, under setting [10], the “% inhibition” value was found to be 22%. Turning to “548051 (eA*eA*kG*dG*d[5mC]*dG*dA*dT*dA*dT*d[5mC]*dA*dT*kG*kA*eT; antisense) [compound 548051]”, the “% inhibition” value under setting [6] was 61%. As for “548328 (antisense eG*eG*kT*d[5mC]*d[5mC]*dT*dT*dG*dA*dA*d[5mC]*d[5mC]*d[5mC]*k[5mC]*kG*eT) [compound 548328]”, under setting [5], the “% inhibition” value is 68%. With “548227 (eG*eT*kG*dG*d[5mC]*d[5mC]*d[5mC]*dT*d[5mC]*dT*dT*dA*dA*kG*kT*e[5mC]; antisense) [compound 548227]”, the “% inhibition” value under setting [3] is 0%. In the case of “548488 (antisense e[5mC]*e[5mC]*kT*d[5mC]*d[5mC]*dT*dT*dT*dT*dG*dG*d[5mC]*dT*kT*kG*eA) [compound 548488]”, the “% inhibition” value under setting [7] is recorded as 63%. As for “548111 (antisense eG*eA*k[5mC]*dT*dG*d[5mC]*dA*dT*d[5mC]*dT*dG*dA*dG*k[5mC]*kT*eT) [compound 548111]”, under setting [1], the “% inhibition” value is recorded as 53%. Take “548161 (e[5mC]*eT*k[5mC]*dG*d[5mC]*dA*dT*dT*dG*dT*d[5mC]*dA*dG*k[5mC]*k[5mC]*e[5mC]; antisense) [compound 548161]”: under setting [3], the “% inhibition” value is given as 59%. Turning to “548077 (eA*eT*kT*dT*dG*dT*dT*dA*d[5mC]*d[5mC]*dA*dA*dA*kG*kG*eA; antisense) [compound 548077]”, under setting [1], the “% inhibition” value turned out to be 51%. For “548190 (eT*eA*kT*dT*d[5mC]*d[5mC]*dA*dT*dG*dA*dA*d[5mC]*dA*kT*k[5mC]*e[5mC]; antisense) [compound 548190]”, the “% inhibition” value under setting [3] came to 43%.

With “548580 (e[5mC]*e[5mC]*kA*dG*dA*dG*d[5mC]*d[5mC]*dT*dT*dG*dA*dT*k[5mC]*kA*eG; antisense) [compound 548580]”, the “% inhibition” value (HepaRG cells, 1,000 nM antisense oligonucleotide, Table 29) was determined as 36%. Take “547803 (eT*eG*kT*dA*d[5mC]*dA*dT*dG*dG*dA*dA*dG*d[5mC]*kT*kA*e[5mC]; antisense) [compound 547803]”: the “% inhibition” value under setting [2] is 0%.

“548091 (antisense eT*eG*k[5mC]*dA*dA*dA*d[5mC]*dT*dA*dA*dG*dG*dG*kA*k[5mC]*e[5mC]) [compound 548091]”: the “% inhibition” value under setting [1] is recorded as 62%.

In the case of “548108 (antisense eG*eA*kG*d[5mC]*dT*dT*dT*dT*d[5mC]*d[5mC]*dA*dT*d[5mC]*kA*k[5mC]*eT) [compound 548108]”, the “% inhibition” value under setting [1] was found to be 61%.

As to “548356 (antisense eT*eG*kT*dT*dG*dG*dT*d[5mC]*dA*dG*d[5mC]*dA*dT*kT*k[5mC]*eA) [compound 548356]”, the “% inhibition” value under setting [5] is reported as 63%.

With “547936 (eG*eA*k[5mC]*dT*d[5mC]*dG*dA*dT*dT*dT*dT*d[5mC]*d[5mC]*kA*kT*eA; antisense) [compound 547936]”, the “% inhibition” value under setting [10] came to 44%. For the substance “548270 (antisense e[5mC]*eT*kG*d[5mC]*dT*dG*dG*dT*dT*dT*dT*dA*dG*kA*k[5mC]*e[5mC]) [compound 548270]”, the “% inhibition” value under setting [9] came to 28%. On to “548616 (antisense eA*eT*kT*dG*dG*dT*dG*dG*d[5mC]*dG*dG*dG*dA*kT*k[5mC]*eG) [compound 548616]”, for which, under setting [4], the “% inhibition” value turned out to be 35%. Consider “548193 (eT*eG*kT*d[5mC]*d[5mC]*dT*dG*dT*d[5mC]*dA*dA*d[5mC]*dA*kT*kA*eT; antisense) [compound 548193]”, for which, under setting [3], the “% inhibition” value came out at 58%. On to “548519 (antisense e[5mC]*e[5mC]*kT*d[5mC]*d[5mC]*d[5mC]*d[5mC]*dT*dT*dG*dT*dG*dT*kG*kT*e[5mC]) [compound 548519]”, for which the “% inhibition” value under setting [7] amounted to 31%. On the same count and under the same terms, to “548474 (eG*eA*kA*dG*dG*dT*dG*dT*dG*d[5mC]*dT*dG*dT*k[5mC]*kG*e[5mC]; antisense) [compound 548474]” belongs 33%.

As a reminder, the % inhibition is the change of the read-out against control, counted positive when it falls. Low values mean a weak effect, high ones a strong effect.
